In patent US10351594B2, “Process for preparing compounds having triple activities of thrombolysis, antithrombosis, and radical scavenging” (Shanghai Lumosa Therapeutics Co., Ltd., priority 2013, dated 2019):
“Also recorded” adds a separate entry of the source. Marks after values point to notes of the source that are not given here.

Assays:
[1] = NO radical scavenging activity (MGD/SNAP signal peak height); assay type: biochemical; details: n = 6
Method: 7.325 mg MGD (N-methyl-glucamine dithiocarbamate, Sigma) was dissolved in 1 mL of pure water to obtain 25 mM MGD solution. […] FeSO4.7H2O was dissolved in 1 mL of pure water to obtain 12.5 mM solution. […] SNAP (S-Nitroso-acetyl penicillamine) was dissolved in 1 mL of pure water to obtain 110 μM green mother liquid, which was diluted 100 folds to obtain 1 μM SNAP solution.
The first peak height of NO signal of 5 μL MGD solution+5 μL FeSO4.7H2O solution+5 μL SNAP solution+5 μL water was measured and repeated for 6 times. This peak height defined as the known peak height of NO signal. The first peak height of NO signal of 5 μL MGD solution+5 μL FeSO4.7H2O solution+5 μL SNAP solution+5 μL solution of one of the compounds 5Aa-p was measured and repeated for 6 times. This peak height defined as the residual peak height of the NO signal scavenged by one of the compounds 5Aa-p. Scavenging ratio=(known peak height of NO signal−residual peak height of NO signal of compounds 5Aa-p)/known peak height of NO signal

[2] = system: thrombus (rat arteriovenous bypass thrombolysis model); assay: Thrombolytic activity via intravenous administration, rat arteriovenous bypass thrombolysis model; assay type: in vivo, male SD rats; details: for Weight reduction in thrombus: n = 10; for Thrombolytic activity, result in words: intravenous, 0.1 nmol/kg (5Ak also 0.01 and 0.001 nmol/kg), urokinase 20000 U/kg
Method: 200-220 g male SD rats were anesthetized with 20% urethane solution (6 mL/kg, ip). Anesthetized rats were fixed in a supine position, and the right common carotid artery was separated, clamped at the proximal end with an arterial clip, and penetrated with a suture at the proximal and distal ends, respectively. The suture at the distal end is clipped tightly by a hemostatic clamp at the skin/fur. Cannulation was performed at the distal end, the arterial clamp was loosened, and about 1 ml arterial blood was discharged into a 1 mL EP vial. 0.1 mL rat arterial blood was injected into a vertically fixed glass tube (15 mm in length, with an inner diameter of 2.5 mm and an outer diameter of 5.0 mm, sealed with a rubber stopper at the bottom), into which was immediately inserted a thrombus immobilization screw made of stainless steel. […] 40 min after the blood coagulated, the rubber stopper at the bottom of the glass tube was removed, the stem of the thrombus immobilization screw was fixed by forceps, and the thrombus-wrapped thrombus immobilization screw was carefully taken out from the glass tube and precisely weighted.
A bypass cannula was composed of 3 segments. The middle segment was a polyethylene tube having a length of 60 mm and an inner diameter of 3.5 mm. The segments on both ends were similar polyethylene tubes having a length of 100 mm, an inner diameter of 1 mm and an outer diameter of 2 mm, one end of which was pulled to form a tip, with an outer diameter of 1.0 mm (used in inserting into the rat carotid artery or vein), the other end of which was sheathed by a polyethylene tube having a length of 7 mm and an outer diameter of 3.5 mm (thickened, used in inserting into the polyethylene tube of the middle segment). The inner wall of the 3-segment cannula was entirely silylated. The thrombus-wrapped thrombus immobilization screw was placed into the polyethylene tube of the middle segment, and both ends of the tube sheath the thickened ends of two polyethylene tubes. The cannula was filled with a heparin solution in normal saline (50 IU/kg) through the tip end by using an injector and was ready for use.
The left external jugular vein of the rat was separated and penetrated with a suture at the proximal and distal ends respectively, and the distal end was ligated. An incision was carefully made on the exposed left external jugular vein, and the tip of the bypass cannula prepared as described above was inserted into the proximal end of the incision in the left external jugular vein, away from the stem of the thrombus immobilization screw in the middle segment of the bypass cannula (which accommodated the accurately weighed thrombus immobilization screw). A precise amount of heparin in saline (50 IU/kg) was injected through the tip at the other end by using an injector. At this moment, without removing the injector from the polyethylene tube, the tube between the injector and the polyethylene tube was clamped with a hemostatic clamp. The blood flow was stopped by clamping the proximal end of the right common carotid artery with an arterial clip, and an incision was cut carefully across the common carotid artery near the clip. The injector was pulled out of the polyethylene tube through the tip, and the tip of the polyethylene tube was then inserted into the proximal end of the artery incision. Both ends of the bypass cannula were fixed to the artery or vein with #4 sutures.
A scalp needle was used to pass saline solution, a urokinase in saline solution or varied concentrations of the compounds in saline solution through the middle section of the bypass cannula (which accommodated the accurately weighed thrombus immobilization screw) to a position at the proximal vein and away from the thrombus immobilization screw. The artery clip was then removed to allow blood to flow from the artery to the vein through the bypass cannula. A rat arteriovenous bypass thrombolysis model was thus established. […]

[3] = system: formation of thrombus (rat arteriovenous bypass); assay: Antithrombotic activity via intravenous administration, rat arteriovenous bypass cannula with thread; assay type: in vivo, male SD rats; details: for wet weight of thrombus: n = 10
Description: A cannula was composed of 3 segments. The middle segment has a length of 80 mm and an inner diameter of 3.5 mm. […] The pre-weighed, 60 mm in length thread was placed in the middle segment of the polyethylene tube. Both ends of the wider tube sheathed the un-narrowed ends of two polyethylene tubes respectively (0.5 mm of the thread was restrained by one of the segment to fix the thread). The cannula was filled with a heparin solution in normal saline (50 IU/kg) through the tip end by using an injector and was ready for use. 200-220 g male SD rats were anesthetized with 20% urethane solution (6 mL/kg, ip). Anesthetized rats were fixed in a supine position, and the left external jugular vein was separated and penetrated with a suture at the proximal and distal ends respectively, and the distal end was ligated. An incision was carefully made on the exposed left external jugular vein, and the tip end without thread-restraining of the bypass cannula prepared as described above was inserted into the proximal end of the open incision in the left external jugular vein. A precise amount of heparin in normal saline (50 IU/kg) was injected through the tip at the other end by using an injector. Then, the injector was replaced, and precise amount of drug was injected by the same way. At this moment, without removing the injector from the ethylene tube, the right common carotid artery was separated, and the proximal end was clipped by an artery clip. The right common carotid artery was penetrated with a suture at the proximal and distal ends respectively, and the distal end was ligated. An incision was carefully cut across the right common carotid artery near the artery clip. The injector was pulled out of the polyethylene tube through the tip, and the tip of the polyethylene tube was then inserted into the proximal end of the artery incision. Both ends of the bypass cannula were fixed to the artery or vein with #4 sutures. The artery clip was then removed to allow blood to flow from the artery to the vein through the bypass cannula. A rat arteriovenous bypass thrombolysis model was thus established. The process was timed from the beginning of circulation, the thread attached with thrombus was taken out from the bypass cannula after 15 minutes and accurately weighed. The difference in the mass of the thread before and after was determined as the wet weight of the thrombus, which was statistically analyzed and used to evaluate the in vivo antithrombotic activities of the compounds. The wet weight of the thrombus was expressed as average value and standard deviation (x±SD). The drug administration method is intravenous injection. The blank control was normal saline solution, and the dose was 1 mL/kg. The positive control was aspirin, and the dose was 9 mg/kg. The dose of compounds 5Aa-p of the present invention was 0.1 nmol/kg. The method was the same as in example 3. The drug administration method is intravenous injection. The blank control was normal saline solution, and the dose was 3 mL/kg. The positive control was aspirin, and the dose was 9 mg/kg.

[4] = rat, intravenous injection, 5Aa-p 0.1 nmol/kg, 1 hour
[5] = rat, 5Aa-p (i.v.) 0.1 nmol/kg, 15 minutes

| Compound | EC50 [1] [µM] | Weight reduction in thrombus [2, 4] | Thrombolytic activity, result in words ([2]; rat) | wet weight of thrombus [3, 5] | Weight reduction in thrombus ([2]; Table 2, 5Ak 0.001 nmol/kg i.v.) | Weight reduction in thrombus ([2]; Table 2, 5Ak 0.01 nmol/kg i.v.) [b mg] | Weight reduction in thrombus ([2]; Table 2, 5Ak 0.1 nmol/kg i.v.) | wet weight of thrombus ([3]; Table 4, 5Ak 0.1 nmol/kg i.v.) | Antithrombotic activity, result in words ([3]; rat, intravenous, 5Ak 0.1 nmol/kg (dose-effect: 0.1, 0.01, 0.001 nmol/kg)) |
| --- | --- | --- | --- | --- | --- | --- | --- | --- | --- |
| C[C@H](NC(=O)[C@@H]1CCCN1)C(=O)N[C@@H](Cc1ccccc1)C(=O)NCCCC[C@H](NC(=O)[C@@H]1Cc2cc(O)c(O)cc2C(C)(C)N1)C(=O)O [Compound 5Af, 3S-6,7-dihydroxy-1,1-dimethyl-1,2,3,4-tetrahydro-isoquinoline-3-acyl-Lys(Pro-Ala-Phe)] | 568 ± 95 | 17.92 ± 1.69^b mg | comparable to that of urokinase; also recorded: higher thrombolytic activity | 54.01 ± 4.25^a mg |  |  |  |  |  |
| C[C@H](NC(=O)[C@@H]1CCCN1)C(=O)N[C@@H](CCCCN)C(=O)NCCCC[C@H](NC(=O)[C@@H]1Cc2cc(O)c(O)cc2C(C)(C)N1)C(=O)O [Compound 5Ak, 3S-6,7-dihydroxy-1,1-dimethyl-1,2,3,4-tetrahydro-isoquinoline-3-acyl-Lys(Pro-Ala-Lys)] | 499 ± 89 | 19.38 ± 2.81^b mg | comparable to that of urokinase; also recorded: higher thrombolytic activity; also recorded: highest thrombolytic activity; also recorded: obvious dose-effect relationship | 51.93 ± 2.74^a mg | 11.73 ± 2.15 ^c mg | 14.62 ± 2.46 | 21.61 ± 4.62^a mg | 52.16 ± 2.02^a mg | effectively inhibit the formation of thrombus; also recorded: obvious dose-effect relationship |
| C[C@H](NC(=O)[C@@H]1CCCN1)C(=O)N1CCC[C@H]1C(=O)NCCCC[C@H](NC(=O)[C@@H]1Cc2cc(O)c(O)cc2C(C)(C)N1)C(=O)O [Compound 5Ae, 3S-6,7-dihydroxy-1,1-dimethyl-1,2,3,4-tetrahydro-isoquinoline-3-acyl-Lys(Pro-Ala-Pro)] | 617 ± 88 | 13.63 ± 1.92^a mg |  | 57.20 ± 6.43^a mg |  |  |  |  |  |
| C[C@H](NC(=O)[C@@H]1CCCN1)C(=O)N[C@@H](CC(=O)O)C(=O)NCCCC[C@H](NC(=O)[C@@H]1Cc2cc(O)c(O)cc2C(C)(C)N1)C(=O)O [Compound 5Ao, 3S-6,7-dihydroxy-1,1-dimethyl-1,2,3,4-tetrahydro-isoquinoline-3-acyl-Lys(Pro-Ala-Asp)] | 473 ± 99 | 15.86 ± 2.21^a mg | comparable to that of urokinase | 48.34 ± 3.29^a mg |  |  |  |  |  |
| CC[C@H](C)[C@H](NC(=O)[C@H](C)NC(=O)[C@@H]1CCCN1)C(=O)NCCCC[C@H](NC(=O)[C@@H]1Cc2cc(O)c(O)cc2C(C)(C)N1)C(=O)O [Compound 5Ai, 3S-6,7-dihydroxy-1,1-dimethyl-1,2,3,4-tetrahydro-isoquinoline-3-acyl-Lys(Pro-Ala-Ile)] | 527 ± 90 | 16.00 ± 2.03^a mg |  | 56.12 ± 5.55^a mg |  |  |  |  |  |
| 3S-6,7-dihydroxy-1,1-dimethyl-1,2,3,4-tetrahydro-isoquinoline-3-acyl-Lys(Pro-Ala-Ala) [Compound 5Aa] | 599 ± 38 | 19.35 ± 2.76^b mg | comparable to that of urokinase; also recorded: higher thrombolytic activity | 54.04 ± 6.43^a mg |  |  |  |  |  |
| C[C@H](NC(=O)[C@@H]1CCCN1)C(=O)N[C@@H](CC(N)=O)C(=O)NCCCC[C@H](NC(=O)[C@@H]1Cc2cc(O)c(O)cc2C(C)(C)N1)C(=O)O [Compound 5An, 3S-6,7-dihydroxy-1,1-dimethyl-1,2,3,4-tetrahydro-isoquinoline-3-acyl-Lys(Pro-Ala-Asn)] | 659 ± 89 | 16.44 ± 2.32^a mg |  | 55.11 ± 4.76^a mg |  |  |  |  |  |
| C[C@H](NC(=O)[C@@H]1CCCN1)C(=O)N[C@@H](CCC(=O)O)C(=O)NCCCC[C@H](NC(=O)[C@@H]1Cc2cc(O)c(O)cc2C(C)(C)N1)C(=O)O [Compound 5Ap, 3S-6,7-dihydroxy-1,1-dimethyl-1,2,3,4-tetrahydro-isoquinoline-3-acyl-Lys(Pro-Ala-Glu)] | 477 ± 91 | 16.03 ± 2.14^a mg |  | 49.97 ± 6.32^a mg |  |  |  |  |  |
| C[C@H](NC(=O)[C@@H]1CCCN1)C(=O)N[C@@H](Cc1c[nH]c2ccccc12)C(=O)NCCCC[C@H](NC(=O)[C@@H]1Cc2cc(O)c(O)cc2C(C)(C)N1)C(=O)O [Compound 5Ac, 3S-6,7-dihydroxy-1,1-dimethyl-1,2,3,4-tetrahydro-isoquinoline-3-acyl-Lys(Pro-Ala-Trp)] | 463 ± 92 | 16.23 ± 2.81^a mg |  | 52.93 ± 3.96^a mg |  |  |  |  |  |
| C[C@H](NC(=O)[C@@H]1CCCN1)C(=O)N[C@@H](CO)C(=O)NCCCC[C@H](NC(=O)[C@@H]1Cc2cc(O)c(O)cc2C(C)(C)N1)C(=O)O [Compound 5Ah, 3S-6,7-dihydroxy-1,1-dimethyl-1,2,3,4-tetrahydro-isoquinoline-3-acyl-Lys(Pro-Ala-Ser)] | 523 ± 85 | 17.10 ± 1.79^a mg |  | 50.67 ± 3.71^a mg |  |  |  |  |  |
